Reference: PubChem BioAssay AID504820 (Southern Research Specialized Biocontainment Screening …, 2011)
Values joined by “and” are separate entries in the source; they are usually repeats but may differ in a detail not shown here. Equal values may be shown once. Active and inactive are the calls of the source. No rule for the calls is given here.

system: not listed separately; assay: inhibition of RSV cytopathic effect in HEp-2, dose response, cell-based, synthesized compounds, set 8 (AID 504820); details: HEp-2 cells, RSV cytopathic effect inhibition; at 50 µM (top of the series)

SMILES | CPE inhibition
Cc1ccc(NC(=O)[C@H]2CCCN2S(=O)(=O)c2cccc3cccnc23)c(C)c1 | 26.6% (inactive)
Cc1ccc(NC(=O)CN(C)S(=O)(=O)c2cccc3cccnc23)c(C)c1 | 46% (inactive)
Cc1ccc(NC(=O)C2CCCN2S(=O)(=O)c2cccc3ccccc23)c(C)c1 (configuration not stated) | 1.6% (inactive)
COCCCNC(=O)c1ccc(Cn2c(=O)c3ccc(Br)cc3n(Cc3ccc(C)cc3)c2=O)cc1 | 1.9% (inactive)
Cc1ccc(F)cc1NC(=O)[C@@H]1CCCN1S(=O)(=O)c1cccc2cccnc12 | 10.8% (inactive)
CCCn1c(=O)n(Cc2ccc(C(=O)NCCCOC)cc2)c(=O)c2ccccc21 | 2.28% (inactive)
Cc1ccc(NC(=O)[C@@H]2CCCN2S(=O)(=O)c2cccc3cccnc23)cc1 | 25.5% (inactive)
Cc1ccc(C(C)C)cc1NC(=O)[C@@H]1CCCN1S(=O)(=O)c1cccc2cccnc12 | 7.9% (inactive)
Cc1ccc(C(C)(C)C)cc1NC(=O)[C@@H]1CCCN1S(=O)(=O)c1cccc2cccnc12 | 2.81% (inactive)
O=C(Nc1ccccc1)[C@@H]1CCCN1S(=O)(=O)c1cccc2cccnc12 | 12.2% (inactive)
Cc1ccc(NC(=O)C2CCCN2S(=O)(=O)c2cccc3cnccc23)c(C)c1 (configuration not stated) | 3.25% (inactive)
Cc1ccc(Cl)c(NC(=O)[C@@H]2CCCN2S(=O)(=O)c2cccc3cccnc23)c1 | 8.49% (inactive)
Cc1ccc(Cn2c(=O)n(Cc3ccc(C(=O)Nc4cc(C)nc5ccccc45)cc3)c(=O)c3ccccc32)cc1 | 2.83% (inactive)
Cc1ccc(NC(=O)CNS(=O)(=O)c2cccc3cccnc23)c(C)c1 | 4.34% (inactive)
Cc1ccc(NC(=O)C(C)NS(=O)(=O)c2cccc3cccnc23)c(C)c1 (configuration not stated) | 4.35% (inactive)
Cc1ccc(NC(=O)C2CCCN2S(=O)(=O)c2cccc3cc(C)cnc23)c(C)c1 (configuration not stated) | 11.1% (inactive)
Cc1ccc(NC(=O)[C@@H]2CCCN2S(=O)(=O)c2cccc3nonc23)c(C)c1 | 6.16% (inactive)

SMILES | CPE inhibition
Cc1ccc(NC(=O)C2CCCN2S(C)(=O)=O)c(C)c1 (configuration not stated) | 2.52% (inactive)
Cc1cc(NC(=O)[C@@H]2CCCN2S(=O)(=O)c2cccc3cccnc23)n(C(C)(C)C)n1 | 33.2% (inactive)
O=C(Nc1ccc(Cl)cc1Cl)[C@@H]1CCCN1S(=O)(=O)c1cccc2cccnc12 | 2.1% (inactive)
Cc1ccc(NC(=O)C2CCCN2S(=O)(=O)c2ccccc2)c(C)c1 (configuration not stated) | 1.19% (inactive)
Cc1ccc(C(F)(F)F)cc1NC(=O)[C@@H]1CCCN1S(=O)(=O)c1cccc2cccnc12 | 15% (inactive)
Cc1ccc(NC(=O)C2CCCN2S(=O)(=O)c2ccc3ncccc3c2)c(C)c1 (configuration not stated) | 1.75% (inactive)
Cc1ncccc1NC(=O)[C@@H]1CCCN1S(=O)(=O)c1cccc2cccnc12 | 3.67% (inactive)
Cc1ccc(Cn2c(=O)n(Cc3ccc(C(=O)Nc4nccs4)cc3)c(=O)c3ccccc32)cc1 | 2.96% (inactive)
COCCCNC(=O)c1ccc(Cn2c(=O)c3ccccc3n(C)c2=O)cc1 | 19.2% (inactive)
Cc1ccc(NC(=O)[C@@H]2CCCN2S(=O)(=O)c2cccc3cccnc23)c(C)n1 | 4.2% (inactive)
COc1ccc(C)cc1NC(=O)[C@@H]1CCCN1S(=O)(=O)c1cccc2cccnc12 | 4.82% (inactive)
COCCCNC(=O)c1ccc(Cn2c(=O)c3ccccc3n(Cc3cc(C)on3)c2=O)cc1 | 6.33% (inactive)
CC(C)(C)NC(=O)[C@@H]1CCCN1S(=O)(=O)c1cccc2cccnc12 | 1.38% (inactive)
Cc1cccc(C)c1NC(=O)[C@@H]1CCCN1S(=O)(=O)c1cccc2cccnc12 | 44.1% (inactive)
Cc1cc(C)cc(NC(=O)[C@@H]2CCCN2S(=O)(=O)c2cccc3cccnc23)c1 | 33.1% (inactive)
O=C([C@@H]1CCCN1S(=O)(=O)c1cccc2cccnc12)N1CCOCC1 | 1.71% (inactive)
Cc1cccc(NC(=O)[C@@H]2CCCN2S(=O)(=O)c2cccc3cccnc23)c1 | 12.8% (inactive)

system: HEp-2 cells, RSV cytopathic effect inhibition; assay: as above; details: not given

IC50 | SMILES
0.55 µM | COCCCNC(=O)c1ccc(Cn2c(=O)c3ccccc3n(Cc3ccc([N+](=O)[O-])cc3)c2=O)cc1
20.8 µM | CCc1ccccc1NC(=O)[C@@H]1CCCN1S(=O)(=O)c1cccc2cccnc12
1.5 µM | COCCCNC(=O)c1ccc(Cn2c(=O)c3ccccc3n(Cc3ccc(C)c(C(F)(F)F)c3)c2=O)cc1
2.5 µM | Cc1ccc(Cl)cc1NC(=O)[C@@H]1CCCN1S(=O)(=O)c1cccc2cccnc12
8.9 µM | Cc1cccc(NC(=O)[C@@H]2CCCN2S(=O)(=O)c2cccc3cccnc23)c1C
12.6 µM | Cc1ccc(NC(=O)C2CCCN2S(=O)(=O)c2cccc3cccnc23)c(C)c1 (configuration not stated)
4.8 µM | COc1ccc(C)c(NC(=O)[C@@H]2CCCN2S(=O)(=O)c2cccc3cccnc23)c1
1.25 µM | Cc1ccc(Cn2c(=O)n(Cc3ccc(C(=O)NC(C)(C)C)cc3)c(=O)c3ccccc32)cc1
3.35 µM | COc1ccccc1CNC(=O)C1CCN(S(=O)(=O)c2cccc3nonc23)CC1
1.15 µM | COCCCNC(=O)c1ccc(Cn2c(=O)c3ccccc3n(Cc3ccc(Br)cc3)c2=O)cc1
4.7 µM | COCCCNC(=O)c1ccc(Cn2c(=O)c3ccccc3n(Cc3ccc4nonc4c3)c2=O)cc1
3 µM | Cc1ccc(NC(=O)[C@@H]2CCCN2S(=O)(=O)c2cccc3cccnc23)c(C)c1
2.3 µM | COCCCNC(=O)c1ccc(Cn2c(=O)c3ccccc3n(Cc3ccc(OC)cc3)c2=O)cc1
17.2 µM | CC(C)c1ccccc1NC(=O)[C@@H]1CCCN1S(=O)(=O)c1cccc2cccnc12
2.9 µM and 1.7 µM | Cc1ccc(C)c(NC(=O)[C@@H]2CCCN2S(=O)(=O)c2cccc3cccnc23)c1
2.65 µM | Cc1ccc(Cn2c(=O)n(Cc3ccc(C(=O)Nc4ccncc4)cc3)c(=O)c3ccccc32)cc1
1.4 µM | COCCCNC(=O)c1ccc(Cn2c(=O)c3ccccc3n(Cc3ccc(C(F)(F)F)cc3)c2=O)cc1
29 µM | Cc1ccccc1NC(=O)[C@@H]1CCCN1S(=O)(=O)c1cccc2cccnc12
